PubChem BioAssay (NCI)
Where “and” joins values, the source holds several entries; their conditions need not be identical. Equal entries are not always repeated.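 These data come from cells grown in 96-well plates and exposed to compound for 48 hours at five concentrations. Here, GI50 denotes the concentration required for 50% inhibition of growth. TGI marks complete inhibition of growth.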 Where a SMILES comes first, the peptide text is derived from it. Bridges are numbered along the chain shown (N, C = ends). [ ]: non-standard residue; d: D form. The star is where a group is joined. Phe(3,5-F2) = N[C@@H](Cc1cc(F)cc(F)c1)C(=O)O; Pro(4R-Me) = C[C@H]1CN[C@H](C(=O)O)C1; aThr = C[C@H](O)[C@H](N)C(=O)O; Pip = O=C(O)[C@@H]1CCCCN1; X7 = CCC/C=C/C=C/C(=O)*

The compounds below were run on MDA-MB-468 breast (assay: NCI anticancer screen, dose series, 48 h).
With `NNC(=S)N/N=C/c1ccccn1` the GI50 was 1.94 µM and the TGI was 5.59 µM. With `COc1ccc2c(c1)OC(N)=C(C#N)C2c1ccc(F)c(F)c1` (stereo unspecified) the GI50 was 0.222 µM and the TGI was 3.56 µM. `O=C(/C=C/c1cccnc1)c1ccccc1` was tested, and the GI50 was 8.22 µM and the TGI was 22 µM. In the case of `CN1CCN(Cc2ccc(NC(=O)c3cncc(C#Cc4cnc5ccc(OCC6COC6)nn45)c3)cc2C(F)(F)F)CC1`, the GI50 is reported as 0.196 µM and the TGI is reported as 0.726 µM. With `Cc1cc(C)c2c(=O)cc(-c3ccccc3)[nH]c2c1` the GI50 was 3.79 µM and the TGI was 25.5 µM. For `COc1cccc(Nc2ncnn3ccc(CN4CC[C@@H](N)[C@H](O)C4)c23)c1`, the GI50 was 0.0333 µM and 0.0201 µM and the TGI was 0.79 µM and 0.175 µM. `Oc1c(CCl)cc(Cl)cc1Cc1cc(Cl)cc(Cc2cc(Cl)cc(CCl)c2O)c1O` was tested, and the GI50 was 3.28 µM and the TGI was 13.1 µM. `COc1cc2cc(Oc3ccc(NC(=O)Nc4ccc(F)c(C(F)(F)F)c4)cc3)c(C)nc2cc1OCCN1CCOCC1` gave a GI50 of 0.451 µM and a TGI of 10.4 µM. For `COc1ccc(/C=C/C(=O)c2ccc(B(O)O)cc2)cc1O`, the GI50 was 6.23 µM and the TGI was 18.4 µM. `COc1ncnn2ccc(-c3cnc4nc(C)n(Cc5nnc(C(C)F)o5)c4c3)c12` (stereo unspecified) gave a GI50 of 0.051 µM and a TGI of 0.309 µM. For `COC(=O)Nc1nc2ccc(C(=O)C3CC3)cc2[nH]1`, the GI50 was 0.247 µM and the TGI was 1.48 µM. `Cc1ccc([I+]c2ccc(C)cc2)cc1` gave a GI50 of 0.264 µM and a TGI of 40 µM. In the case of `C#CCN(C)CCCOc1ccc(NCc2ccc(C(=O)NO)cc2)cc1Cl`, the GI50 is reported as 1.7 µM and the TGI is reported as 8.14 µM. Work on `CO[C@@H]1[C@H](N(C)C(=O)c2ccccc2)C[C@@H]2O[C@]1(C)n1c3ccccc3c3c4c(c5c6ccccc6n2c5c31)C(=O)NC4=O` yielded a GI50 of 0.335 µM and a TGI of over 100 µM. `CC(=O)N[C@@H](Cc1ccc(OP(=O)(O)O)cc1)C(=O)N[C@H]1CCC(=O)N2CCC[C@@H](C(=O)NCc3cccc4ccccc34)N2C1=O` showed a GI50 of over 25 µM and a TGI of over 25 µM. `O=C(CSc1nc2ccc([N+](=O)[O-])cc2[nH]1)Nc1ccc([N+](=O)[O-])cc1` was tested, and the GI50 was 1.08 µM and the TGI was 5.05 µM. Compound `O=C(NC(=S)Nc1ccc(-c2nc3ccccc3[nH]2)cc1)c1ccc2ccccc2c1` has a GI50 of 2.34 µM and a TGI of 7.72 µM. With `COc1c(O)cc2c(c1CC=C(C)C)OC(=O)c1c(cc(O)c(CC=C(C)C)c1O)O2` the GI50 was 4.19 µM and the TGI was 8.21 µM. In the case of `O=C1/C(=C\c2ccc(Cl)cc2)CN(C(=O)c2ccccc2)C/C1=C\c1ccc(Cl)cc1`, the GI50 is reported as 1.86 µM and the TGI is reported as 4.28 µM. `NCCSC1(O)C(=O)c2ccccc2-c2ccccc21` (stereo unspecified) was tested, and the GI50 was 0.615 µM and the TGI was 2.12 µM. Work on `CCC/C=C/C=C/C(=O)N[C@@H](Cc1cc(F)cc(F)c1)C(=O)N[C@@H]1C(=O)N2CCC[C@H]2C(=O)N2CCCC[C@H]2C(=O)N[C@@H](C)C(=O)N2C[C@H](C)C[C@H]2C(=O)O[C@H]1C` (X7-[Phe(3,5-F2)][aThr]P[Pip]A[Pro(4R-Me)]; ester 2-C) yielded a GI50 of 0.271 µM and a TGI of 1.03 µM. Work on `CC(C)c1ccc2c(c1)CCC1C(C)(CN)CCCC21C` (stereo unspecified) yielded a GI50 of 1.43 µM and a TGI of 2.76 µM. `O=C(NCCNc1nccc(-c2c(-c3ccc(F)cc3)nc3sccn23)n1)Nc1cccc(C(F)(F)F)c1` gave a GI50 of 2.14 µM and a TGI of 7.46 µM. In the case of `Nc1ncnc2occ(-c3ccc(NC(=O)Nc4cc(C(F)(F)F)ccc4F)cc3)c12`, the GI50 is reported as 4.46 µM and 3.9 µM and the TGI is reported as 12.4 µM and 11.8 µM. With `N#C/C(=C\c1ccc([N+](=O)[O-])cc1)n1nnc2cc(F)c(F)cc21` the GI50 was 1.51 µM and the TGI was 3.53 µM. With `Nc1nc(N)c2cc(Sc3ccc(Cl)cc3)ccc2n1` the GI50 was 1.15 µM and the TGI was 2.71 µM. In the case of `O=C1NC(=N[C@@H]2C[C@H]2c2ccccc2)S/C1=C\c1ccc2ncccc2c1`, the GI50 is reported as 0.872 µM and the TGI is reported as 5.85 µM. `Nc1n[nH]c2ccc([C@H]3[C@@H]4C5CCC(C5)[C@@H]4c4c(ccc5[nH]ncc45)N3S(=O)(=O)C3CC3)cc12` (stereo partly specified) showed a GI50 of 0.137 µM and a TGI of 1.7 µM. In the case of `CC[n+]1c(/C=C/c2ccc(N3CCCC3)cc2)cccc1/C=C/c1ccc(N2CCCC2)cc1`, the GI50 is reported as 0.0423 µM and the TGI is reported as 0.196 µM. `COC(=O)CC12CC(NC(=O)c3csc([C@@H](C[C@H](C(C)C)N(C)C(=O)[C@@H](NC(=O)[C@H]4CCCCN4C)C(C)C)OC(C)=O)n3)(C1)C2` was tested, and the GI50 was 0.00438 µM and the TGI was over 33.3 µM. In the case of `NS(=O)(=O)c1ccc(N=Nc2c(O)[nH]c3cccc(CCc4ccncc4)c23)cc1`, the GI50 is reported as over 25 µM and the TGI is reported as over 25 µM. `Cc1cccc2c1NC(=O)[C@@H](NC(=O)[C@H](CCC(F)(F)F)[C@H](CCC(F)(F)F)C(N)=O)N=C2c1cccc(F)c1` gave a GI50 of 18.5 µM and a TGI of over 100 µM. `CCOC(=O)Nc1ccc2c3c(cccc13)-c1ccccc1-2` was tested, and the GI50 was 1.37 µM and the TGI was 5.21 µM. Compound `ClCCN(CCCl)c1ccc(OCc2ccccc2)cc1` has a GI50 of 1.45 µM and a TGI of 16.7 µM. `CC(C)[C@]12O[C@H]1[C@@H]1O[C@]13[C@]1(O[C@H]1C[C@H]1C4=C(CC[C@@]13C)C(=O)OC4)[C@@H]2OC(=O)OC(C)(C)C` gave a GI50 of 0.0147 µM and a TGI of 0.0361 µM. Compound `COc1ccc(-c2nc(Nc3ccc(F)cc3)nc(Nc3ccc4c(c3)nc(C)n4Cc3ccccc3)n2)cc1` has a GI50 of 2.27 µM and a TGI of 7.22 µM. `CCN1C2=C(SC(=S)C1=C1SC(C(=O)c3ccccc3)=C(C(=O)c3ccccc3)S1)SC(=Nc1ccccc1)C2=O` was tested, and the GI50 was over 50.4 µM and the TGI was over 100 µM. Work on `CN1CCN(C(=O)OCc2nc3c(N4CCOCC4)nc(-c4ccccc4)nc3n2C)CC1` yielded a GI50 of 0.558 µM and a TGI of 2.02 µM.
